Columns and labels:
[1] = molecular target: T1, Tyrosine-protein kinase BTK (Homo sapiens, UniProt Q06187); experiment: Inhibition of full length N-terminal GST fusion tagged human BTK expressed in baculovirus expression system at 50 nM using FAM-P2 peptide solution as substrate incubated for 10 mins in presence of ATP by microplate reader assay relative to control
[2] = molecular target: T1, Tyrosine-protein kinase BTK; experiment: Inhibition of full length N-terminal GST fusion tagged human BTK expressed in baculovirus expression system at 500 nM using FAM-P2 peptide solution as substrate incubated for 10 mins in presence of ATP by microplate reader assay
[3] = molecular target: T1, Tyrosine-protein kinase BTK; experiment: Inhibition of full length N-terminal GST fusion tagged human BTK expressed in baculovirus expression system using FAM-P2 peptide solution as substrate incubated for 10 mins in presence of ATP by microplate reader assay
[4] = molecular target: T2, Protein cereblon/Tyrosine-protein kinase BTK (Homo sapiens, UniProt Q06187+Q96SW2); experiment: Protac activity at BTK/CRBN in human JeKo-1 cells assessed as induction of BTK degradation at 100 nM measured after 1 hr by Western blot analysis relative to control; format: cell-based
Target sequence in this assay (Q06187 2-659 limits assumed): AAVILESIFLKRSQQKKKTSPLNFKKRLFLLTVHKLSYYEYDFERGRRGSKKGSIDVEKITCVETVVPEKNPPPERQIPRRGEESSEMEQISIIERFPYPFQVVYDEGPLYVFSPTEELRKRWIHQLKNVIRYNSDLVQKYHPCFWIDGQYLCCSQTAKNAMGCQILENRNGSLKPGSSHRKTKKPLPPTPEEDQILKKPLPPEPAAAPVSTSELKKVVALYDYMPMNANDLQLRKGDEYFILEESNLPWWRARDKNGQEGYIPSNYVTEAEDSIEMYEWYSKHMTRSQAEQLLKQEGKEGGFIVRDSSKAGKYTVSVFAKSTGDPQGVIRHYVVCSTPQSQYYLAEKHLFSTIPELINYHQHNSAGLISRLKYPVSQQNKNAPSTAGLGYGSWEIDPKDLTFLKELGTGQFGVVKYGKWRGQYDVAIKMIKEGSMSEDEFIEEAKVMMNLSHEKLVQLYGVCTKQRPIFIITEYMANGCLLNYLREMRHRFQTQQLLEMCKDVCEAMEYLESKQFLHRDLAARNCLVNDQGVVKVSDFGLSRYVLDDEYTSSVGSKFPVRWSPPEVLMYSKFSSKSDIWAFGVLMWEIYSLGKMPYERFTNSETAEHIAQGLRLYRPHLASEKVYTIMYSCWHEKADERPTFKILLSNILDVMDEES
Target sequence in this assay (Q96SW2 whole entry partner): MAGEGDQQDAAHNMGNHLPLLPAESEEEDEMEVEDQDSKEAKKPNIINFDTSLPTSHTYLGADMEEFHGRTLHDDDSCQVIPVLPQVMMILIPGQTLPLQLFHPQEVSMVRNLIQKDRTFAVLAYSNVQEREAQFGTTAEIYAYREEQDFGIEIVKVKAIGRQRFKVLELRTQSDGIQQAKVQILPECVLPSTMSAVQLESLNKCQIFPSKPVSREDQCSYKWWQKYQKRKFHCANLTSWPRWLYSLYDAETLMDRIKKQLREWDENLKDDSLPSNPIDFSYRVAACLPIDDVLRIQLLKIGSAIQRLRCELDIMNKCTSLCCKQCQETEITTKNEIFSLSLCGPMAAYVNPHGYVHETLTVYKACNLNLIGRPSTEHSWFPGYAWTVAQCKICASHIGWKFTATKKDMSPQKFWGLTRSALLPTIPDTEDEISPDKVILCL

[5] = molecular target: T2, Protein cereblon/Tyrosine-protein kinase BTK; experiment: Protac activity at BTK/CRBN in human JeKo-1 cells assessed as induction of BTK degradation measured after 1 hr by Western blot analysis; format: cell-based
Target sequence in this assay (Q06187 whole entry): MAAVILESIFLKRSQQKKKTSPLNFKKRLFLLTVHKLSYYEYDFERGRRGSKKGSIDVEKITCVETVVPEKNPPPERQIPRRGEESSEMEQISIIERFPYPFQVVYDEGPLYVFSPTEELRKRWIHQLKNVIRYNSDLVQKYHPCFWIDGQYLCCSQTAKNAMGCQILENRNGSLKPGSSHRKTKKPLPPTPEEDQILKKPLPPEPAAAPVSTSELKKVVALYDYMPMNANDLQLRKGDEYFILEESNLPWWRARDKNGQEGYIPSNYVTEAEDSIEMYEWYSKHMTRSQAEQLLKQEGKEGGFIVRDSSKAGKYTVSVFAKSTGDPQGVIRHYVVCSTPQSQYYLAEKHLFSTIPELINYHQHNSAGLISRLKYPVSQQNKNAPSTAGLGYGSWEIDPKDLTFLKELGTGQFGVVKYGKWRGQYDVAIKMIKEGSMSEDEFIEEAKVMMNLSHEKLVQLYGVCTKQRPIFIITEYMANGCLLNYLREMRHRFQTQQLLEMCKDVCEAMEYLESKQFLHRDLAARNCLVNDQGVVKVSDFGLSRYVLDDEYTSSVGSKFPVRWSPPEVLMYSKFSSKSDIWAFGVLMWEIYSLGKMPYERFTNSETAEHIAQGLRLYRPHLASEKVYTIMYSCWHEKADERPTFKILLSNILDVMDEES
Target sequence in this assay (Q96SW2 whole entry): as the sequence (Q96SW2 whole entry partner) above

[6] = molecular target: T2, Protein cereblon/Tyrosine-protein kinase BTK; experiment: Protac activity at BTK/CRBN in human JeKo-1 cells assessed as maximal BTK degradation measured after 1 hr by Western blot analysis relative to control; format: cell-based
Target sequence in this assay (Q06187 2-659 limits assumed): as the sequence (Q06187 2-659 limits assumed) above
Target sequence in this assay (Q96SW2 whole entry partner): as the sequence (Q96SW2 whole entry partner) above

[7] = molecular target: Protein cereblon/Tyrosine-protein kinase BTK (Homo sapiens, UniProt Q06187+Q96SW2, C481S); experiment: Protac activity at BTK C481S mutant/CRBN in human TMD8 cells assessed as induction of BTK degradation measured after 1 hr by Western blot analysis; format: cell-based
[8] = Half life in human plasma; format: ADME, cell-free
[9] = test system: Protein cereblon/Tyrosine-protein kinase BTK (Homo sapiens), Q06187+Q96SW2 [C481S]; experiment: Protac activity at BTK C481S mutant/CRBN in human TMD8 cells assessed as maximal BTK degradation measured after 1 hr by Western blot analysis relative to control; format: cell-based
TMD8 [10] = experiment: cells; conditions: Homo sapiens, TMD8, 72 h
TMD8 [11] = experiment: cells; conditions: Homo sapiens, TMD8, 72 h; remark: listed apart in the source
[12] = Apparent permeability across apical to basolateral side in human Caco-2 cells; format: ADME, cell-based
[13] = Apparent permeability across basolateral to apical side in human Caco-2 cells; format: ADME, cell-based
[14] = Efflux ratio of apparent permeability from basolateral to apical side over apical to basolateral side in human Caco-2 cells; format: ADME, cell-based

T1 sequence (Q06187 whole entry, the tested form may be a part): as the sequence (Q06187 whole entry) above
Protein cereblon/Tyrosine-protein kinase BTK (Homo sapiens, UniProt Q06187+Q96SW2, C481S), sequence (Q06187 2-659 C481S limits assumed, stated change not applied): as the sequence (Q06187 2-659 limits assumed) above, with C480S counted along it
Protein cereblon/Tyrosine-protein kinase BTK (Homo sapiens, UniProt Q06187+Q96SW2, C481S), sequence (Q96SW2 whole entry, stated change not applied): as the sequence (Q96SW2 whole entry partner) above

SMILES	inhibition [1] [%]	inhibition [2] [%]	IC50 [3] [nM]	Activity [4] [%]	DC50 [5] [nM]	%max [6] [%]	DC50 [7] [nM]	half-life [8] [h]	%max [9] [%]	IC50 (TMD8 [10]) [nM]	IC50 (TMD8 [11]) [nM]	Papp A→B [12] [×10⁻⁶ cm/s]	Papp B→A [13] [×10⁻⁶ cm/s]	efflux ratio [14]
O=C(CNc1ncnc2[nH]cc(C(=O)c3ccc(Oc4ccccc4)cc3Cl)c12)NCCOCCOCCOCCOCCOCCNc1cccc2c1C(=O)N(C1CCC(=O)NC1=O)C2=O (stereo not drawn)	5.9	35.5	1210	64.2	8.1	72.4	80.4	5.34	88.4	1690	63.3			
O=C(CNc1ncnc2[nH]cc(C(=O)c3ccc(Oc4ccccc4)cc3Cl)c12)NCCOCCOCCOCCOCCNc1cccc2c1C(=O)N(C1CCC(=O)NC1=O)C2=O (stereo not drawn)	5.6	35.6	2200	55.6	9.4	66.5	52.7		68.6					
O=C1CCC(N2C(=O)c3cccc(NCCOCCOCCOCCOCCOCCNC(=O)N[C@H]4CC[C@@H](Nc5ncnc6[nH]cc(C(=O)c7ccc(Oc8ccccc8)cc7Cl)c56)CC4)c3C2=O)C(=O)N1 (stereo partly drawn)	58.4	90	56.4	93.7	41.9	93	42.9	3.55	90.7	254	45.7	< 5.3	7.5	> 1.4
N[C@H]1CC[C@@H](Nc2ncnc3[nH]cc(C(=O)c4ccc(Oc5ccccc5)cc4Cl)c23)CC1	94.2	99.5	4.3											
O=C(CNc1ncnc2[nH]cc(C(=O)c3ccc(Oc4ccccc4)cc3Cl)c12)NCCOCCOCCOCCOCCOCCOCCNc1cccc2c1C(=O)N(C1CCC(=O)NC1=O)C2=O (stereo not drawn)	10	42.5	1390	78.7	8.3	92.4	52.3		84.8	750	104			
CCNC(=O)N[C@H]1CC[C@@H](Nc2ncnc3[nH]cc(C(=O)c4ccc(Oc5ccccc5)cc4Cl)c23)CC1			25.2											
O=C1CCC(N2C(=O)c3cccc(NCCOCCOCCOCCNC(=O)N[C@H]4CC[C@@H](Nc5ncnc6[nH]cc(C(=O)c7ccc(Oc8ccccc8)cc7Cl)c56)CC4)c3C2=O)C(=O)N1 (stereo partly drawn)	73.5	95.2	22.3	44.1	32.3	76.9	30.1		84.3					
O=C1CCC(N2C(=O)c3cccc(NCCOCCOCCOCCOCCNC(=O)N[C@H]4CC[C@@H](Nc5ncnc6[nH]cc(C(=O)c7ccc(Oc8ccccc8)cc7Cl)c56)CC4)c3C2=O)C(=O)N1 (stereo partly drawn)	32.6	74.9	46.9	88.8	12.1	78	37.9		83.5	290	39.5			

Second part, led by results:

inhibition [1] [%]	inhibition [2] [%]	IC50 [3] [nM]	SMILES	Activity [4] [%]	DC50 [5] [nM]	%max [6] [%]	DC50 [7] [nM]	half-life [8] [h]	%max [9] [%]	IC50 (TMD8 [10]) [nM]	IC50 (TMD8 [11]) [nM]	Papp A→B [12] [×10⁻⁶ cm/s]	Papp B→A [13] [×10⁻⁶ cm/s]	efflux ratio [14]
		407	CCNC(=O)CNc1ncnc2[nH]cc(C(=O)c3ccc(Oc4ccccc4)cc3Cl)c12											
7	39		O=C(CNc1ncnc2[nH]cc(C(=O)c3ccc(Oc4ccccc4)cc3Cl)c12)NCCOCCOCCOCCOCCOCCOCCOCCNc1cccc2c1C(=O)N(C1CCC(=O)NC1=O)C2=O (stereo not drawn)	14.7										
1.8	9.3		O=C(CNc1ncnc2[nH]cc(C(=O)c3ccc(Oc4ccccc4)cc3Cl)c12)NCCCCNc1cccc2c1C(=O)N(C1CCC(=O)NC1=O)C2=O (stereo not drawn)	24.9										
75	96.2	23	O=C1CCC(N2C(=O)c3cccc(NCCCCNC(=O)N[C@H]4CC[C@@H](Nc5ncnc6[nH]cc(C(=O)c7ccc(Oc8ccccc8)cc7Cl)c56)CC4)c3C2=O)C(=O)N1 (stereo partly drawn)	6.8										
44.2	85.1	81.4	O=C(O)CNc1ncnc2[nH]cc(C(=O)c3ccc(Oc4ccccc4)cc3Cl)c12											
4.9	10.9	5970	CCOC(=O)CNc1ncnc2[nH]cc(C(=O)c3ccc(Oc4ccccc4)cc3Cl)c12											
7.5	21.5	3780	O=C(CNc1ncnc2[nH]cc(C(=O)c3ccc(Oc4ccccc4)cc3Cl)c12)NCCOCCOCCNc1cccc2c1C(=O)N(C1CCC(=O)NC1=O)C2=O (stereo not drawn)	33										
8.6	21.6	1930	O=C(CNc1ncnc2[nH]cc(C(=O)c3ccc(Oc4ccccc4)cc3Cl)c12)NCCOCCOCCOCCNc1cccc2c1C(=O)N(C1CCC(=O)NC1=O)C2=O (stereo not drawn)	56.2	28.5	67.1								
2.4	10.9		O=C(CNc1ncnc2[nH]cc(C(=O)c3ccc(Oc4ccccc4)cc3Cl)c12)NCCNc1cccc2c1C(=O)N(C1CCC(=O)NC1=O)C2=O (stereo not drawn)											
82.1	97.4	15.5	O=C1CCC(N2C(=O)c3cccc(NCCOCCOCCNC(=O)N[C@H]4CC[C@@H](Nc5ncnc6[nH]cc(C(=O)c7ccc(Oc8ccccc8)cc7Cl)c56)CC4)c3C2=O)C(=O)N1 (stereo partly drawn)	22.8										
